Results from US5719291A, “Cyclohexane derivatives” (Hoffmann-La Roche Inc., priority 1991, dated 1998).
≈ marks a conversion by molar mass, not a printed value. Where a name gives a salt, the structure may show the parent alone. Read-outs that look alike come from different tables or passages of the source.

Assays:
Format in all cases: cell-based
C. neoformans = experiment: In vitro antifungal activity, IC80 (Method B); details: Cryptococcus neoformans, 1-2 days, 27° C., read-out: Antifungal activity IC80
Method: (§1) The in vitro antifungal activities of the representative compounds of the present invention shown in Table 1 and Table 2 were measured by determining the minimal inhibitory concentrations (MIC: Method A) or 80% growth inhibition concentration (IC80 : Method B) respectively. MIC is defined as the concentration of an antifungal at which growth of fungi is not observed and IC80 is the concentration where cell turbidity measured at OD630 is reduced by 80%.
(§2) Antifungal activities were determined by either method A or B (see below) using microtest plates according NCCLS with minor modifications (Galgiani et at., Antimicrob. Agents Chemother. 33, 731 (1989)).
(§3) (Method B) The medium for yeast was buffered to pH 7.0 with 0.25% K2 HPO4 in Yeast Nitrogen Base (Difco Lab.). For the filamentous fungi, 0.2% of low melting point agar was supplemented to the above medium. Inoculum size was 1×10^4 cells/ml, and incubation was carried out for 1-2 days at 27° C. Fluconazole (Pfizer) was used as reference.

A. fumigatus = experiment: In vitro antifungal activity, IC80 (Method B); details: Aspergillus fumigatus, 1×10^4 cells/ml, 1-2 days, 27° C., 0.2% agar, read-out: Antifungal activity IC80
Method: as §1, §2, §3

Candida albicans [1] = experiment: In vitro antifungal activity, IC80 (Method B); details: 1-2 days, 27° C., read-out: Antifungal activity IC80
Method: as §1, §2, §3

Candida albicans [2] = experiment: In vitro antifungal activity, MIC (Method A); details: Candida albicans, 72 h, 3 days, 27° C.
Method: (§4) The in vitro antifungal activities of representative compounds of the present invention were measured by determining the minimal inhibitory concentration (MIC), which is the concentration of an antifungal at which no fungal growth can be observed.
(§5) The MICs were determined by the microbroth dilution procedure according to NCCLS with the following minor modifications (Galgiani et al., Antimicrob. Agents Chemother., 33, 731 (1989). The medium was solidified with 0.2% low melting point agarose and buffered to pH 7.0 with 0.25%: K2 HPO4 in Yeast Nitrogen Base (Difco Lab.). Inoculum size was 1×10^5 cells/ml, and incubation was carried out for 3 days at 27° C. The MICs ([…]) are shown in Table 1. The reference compound is compound (IA) in U.S. Pat. No. 4,952,604. The compounds used are identified by reference to the Examples in which they were prepared.
as §1, §2
(§6) (Method A) The medium was solidified with 0.2% low melting point agarose and buffered to pH 7.0 with 0.25% K2 HPO4 in Yeast Nitrogen Base (Difco Lab.). Inoculum size was 1×10^5 cells/ml, and incubation was carried out for 3 days at 27° C. The reference compound is compound (IA) in U.S. Pat. No. 4,952,604.

Cryptococcus neoformans = experiment: In vitro antifungal activity, MIC (Method A); details: Cryptococcus neoformans, 72 h, 3 days, 27° C.
Method: as §4, §5, §1, §2, §6

Aspergillus fumigatus = experiment: In vitro antifungal activity, MIC (Method A); details: Aspergillus fumigatus, 72 h, 3 days, 27° C.
Method: as §4, §5, §1, §2, §6

[3] = pH 7, C. neoformans CY1057, 1×10^4 cells/ml
[4] = pH 7, C. neoformans CY1059, 1×10^4 cells/ml
[5] = pH 7, Candida albicans CY1002, 1×10^4 cells/ml
[6] = pH 7, Candida albicans CY1005, 1×10^4 cells/ml
[7] = pH 7, Candida albicans CY3003, 1×10^4 cells/ml
[8] = pH 7, Candida albicans CY1002, 1×10^5 cells/ml
[9] = pH 7, Candida albicans CY1005, 1×10^5 cells/ml
[10] = pH 7, Candida albicans CY3003, 1×10^5 cells/ml
[11] = pH 7, Cryptococcus neoformans CY1057, 1×10^5 cells/ml
[12] = pH 7, Cryptococcus neoformans CY1059, 1×10^5 cells/ml
[13] = pH 7, Cryptococcus neoformans CY1061, 1×10^5 cells/ml
[14] = pH 7, Aspergillus fumigatus CF1003, 1×10^5 cells/ml
[15] = pH 7, Aspergillus fumigatus CF1004, 1×10^5 cells/ml
[16] = pH 7, Aspergillus fumigatus CF1023, 1×10^5 cells/ml

Structure (SMILES) | MIC (Candida albicans [2]; [8]) | MIC (Candida albicans [2]; [9]) | MIC (Candida albicans [2]; [10]) | MIC (Cryptococcus neoformans; [11]) | MIC (Cryptococcus neoformans; [12]) | MIC (Cryptococcus neoformans; [13]) | MIC (Aspergillus fumigatus; [14]) | MIC (Aspergillus fumigatus; [15]) | MIC (Aspergillus fumigatus; [16]) | IC80 (C. neoformans; [3]) | IC80 (C. neoformans; [4]) | IC80 (A. fumigatus; A. fumigatus CF1003) | IC80 (A. fumigatus; A. fumigatus CF1004) | IC80 (Candida albicans [1]; [5]) | IC80 (Candida albicans [1]; [6]) | IC80 (Candida albicans [1]; [7])
CO[C@@H]1[C@@H](Cn2cncn2)[C@H](CCc2ccc3ccccc3c2)CCC1(C)C [Example 75, 1-[[(1R,2R,6R)-2-methoxy-3,3-dimethyl-6-(2-b-naphthylethyl)cyclohexyl]methyl]-1H,1,1,4-triazole] | – | – | – | – | – | – | – | – | – | 0.19 µg/mL (≈ 0.503 µM) | 1.3 µg/mL (≈ 3.44 µM) | > 200 µg/mL | > 200 µg/mL | 0.18 µg/mL (≈ 0.477 µM) | 0.2 µg/mL (≈ 0.53 µM) | 0.34 µg/mL (≈ 0.901 µM)
CCc1ccc(OC[C@@H]2CCC(C)(C)[C@H](OC)[C@H]2Cn2cncn2)cc1 [Example 83, 1-[[(1R,2R,6R)-2-methoxy-3,3-dimethyl-6-(4-ethylphenoxy)methyl]methyl]-1H,1,2,4-triazole] | – | – | – | – | – | – | – | – | – | 0.21 µg/mL (≈ 0.587 µM) | 0.19 µg/mL (≈ 0.531 µM) | > 200 µg/mL | > 200 µg/mL | 0.31 µg/mL (≈ 0.867 µM) | 0.24 µg/mL (≈ 0.671 µM) | 0.59 µg/mL (≈ 1.65 µM)
COc1ccc(CC[C@@H]2CCC(C)(C)[C@H](OC)[C@H]2Cn2cncn2)cc1 [Example 79, 1-[[(1R,2R,6R)-2-methoxy-6-(p-methoxyphenethyl)-3,3-dimethylcyclohexyl]methyl]-1H,1,2,4-triazole] | – | – | – | – | – | – | – | – | – | 0.86 µg/mL (≈ 2.41 µM) | 4.7 µg/mL (≈ 13.1 µM) | > 200 µg/mL | > 200 µg/mL | 0.023 µg/mL (≈ 0.0643 µM) | 0.024 µg/mL (≈ 0.0671 µM) | 0.02 µg/mL (≈ 0.0559 µM)
CCCCCCCC/C=C/[C@@H]1OC[C@H](C)[C@H](OC)[C@H]1OC(=O)CN.O=C(O)C(F)(F)F [Example 6, (2S,3R,4S,5S)-2-[(E)-1-decenyl]-4-methoxy-5-methyltetrahydro-2H-pyran-3-yl glycinate trifluoroacetic acid salt] | 100 µg/mL | 100 µg/mL | 100 µg/mL | 12.5 µg/mL | 12.5 µg/mL | 25 µg/mL | 12.5 µg/mL | 12.5 µg/mL | 6.25 µg/mL | – | – | – | – | – | – | –

Further lines, with some results ahead:

MIC (Candida albicans [2]; [8]) | MIC (Candida albicans [2]; [9]) | MIC (Candida albicans [2]; [10]) | MIC (Cryptococcus neoformans; [11]) | MIC (Cryptococcus neoformans; [12]) | MIC (Cryptococcus neoformans; [13]) | MIC (Aspergillus fumigatus; [14]) | MIC (Aspergillus fumigatus; [15]) | MIC (Aspergillus fumigatus; [16]) | Structure (SMILES) | IC80 (C. neoformans; [3]) | IC80 (C. neoformans; [4]) | IC80 (A. fumigatus; A. fumigatus CF1003) | IC80 (A. fumigatus; A. fumigatus CF1004) | IC80 (Candida albicans [1]; [5]) | IC80 (Candida albicans [1]; [6]) | IC80 (Candida albicans [1]; [7])
50 µg/mL | 50 µg/mL | 25 µg/mL | 6.25 µg/mL | 12.5 µg/mL | 12.5 µg/mL | 100 µg/mL | 200 µg/mL | 50 µg/mL | CCCCCCC/C=C/[C@@H]1OC[C@@H](OCc2ccccc2)[C@H](OC)[C@@H]1OC(=O)CN.O=C(O)C(F)(F)F [Example 31, (2S,3R,4S,5R)-5-benzyloxy-4-methoxy-2-[(E)-1-nonenyl]tetra-hydro-2H-pyran-3-yl glycinate trifluoroacetic acid salt] | – | – | – | – | – | – | –
25 µg/mL | 25 µg/mL | 50 µg/mL | 12.5 µg/mL | 12.5 µg/mL | 12.5 µg/mL | 50 µg/mL | 50 µg/mL | 50 µg/mL | CCCCCCCCC[C@@H]1OC[C@H](C)[C@H](OCCC)[C@H]1OC(=O)CN [Example 23, 2S,3R,4S,5S)-5-methyl-2-nonyl-4-propoxytetrahydro-2-H-pyran-3-yl glycinate trifluoroacetic acid salt] | – | – | – | – | – | – | –
50 µg/mL | 50 µg/mL | 50 µg/mL | 6.25 µg/mL | 12.5 µg/mL | 12.5 µg/mL | 50 µg/mL | 50 µg/mL | 50 µg/mL | CCCCCCC/C=C\[C@@H]1OC[C@H](C)[C@H](OCCC)[C@H]1OC(=O)CN [Example 22, (2S,3R,4S,5-S)-5-methyl-2-[(Z)-1-nonenyl]-4-prpoxy-tetrahydro-2H-pyran-3-ylglycinate trifluoroacetic acid salt] | – | – | – | – | – | – | –
50 µg/mL (≈ 164 µM) | 25 µg/mL (≈ 82.1 µM) | 25 µg/mL (≈ 82.1 µM) | 3.13 µg/mL (≈ 10.3 µM) | 6.25 µg/mL (≈ 20.5 µM) | 3.13 µg/mL (≈ 10.3 µM) | 3.13 µg/mL (≈ 10.3 µM) | 12.5 µg/mL (≈ 41.1 µM) | 12.5 µg/mL (≈ 41.1 µM) | CCCCCCCCC[C@@H]1OC[C@H](C)C=C1Cn1ccnc1 [Example 59, 1-[[(2S,5R)-5,6-dihydro-5-methyl-2-nonyl-2H-pyran-3-yl]methyl]-1H-imidazole] | – | – | – | – | – | – | –
